Data set [1] in a line: Solubility limit of S-petasin in the binding assay. Format: physicochemical. To be noted: reaction buffer of binding assay, aqueous buffer; read-out: Highest attainable concentration owing to solubility.
Another data set relates to PDE1. Briefly: Inhibition of PDE1 activity (two-step radioenzymatic assay). Format: biochemical, guinea pig. The settings on record: mean ± SEM (n); read-out: IC50 on PDE isozyme 1. As to the method: Activities of PDE1–5, partially separated from guinea pig lungs and hearts according to the method described by Ko et al., were measured with a two-step procedure according to the method of Thompson and Appleman, using cAMP with [^3H]-cAMP or cGMP with [^3H]-cGMP as substrates. The enzyme pμreparation (25 μL) was incubated for 30 min at 37°C in a total assay volume of […] containing 50 mM Tris-HCl (pH 7.4), 3 mM MgCl2, 1 mM dithiothreitol, 0.05% BSA, 1 μM cAMP with 0.2 μCi [^3H]-cAMP as a substrate alone or in the presence of 0.1 units calmodulin with 10 μM CaCl2 or 5 μM cGMP, and 1 μM cGMP with 0.2 μCi [^3H]-cGMP as another substrate alone or in the presence of 0.1 units calmodulin with 10 μM CaCl2. In tests of enzyme inhibition, the reaction mixture contained 10 μL of vehicle or inhibitors, at various concentrations of S-petasin or selective PDE1–5 inhibitors, such as vinpocetin [22], EHNA [23], milrinone, Ro 20-1724 [25] and zaprinast, as reference drugs. The reagents and homogenate were mixed on ice, and the reaction was initiated by transferring the mixture to a water bath at 37°C. Following a 30-min incubation, the reaction was stopped by transferring the reaction vessel to a bath of boiling water for 3 min. After cooling on ice, 20 μL of a 1 mg/mL solution of C. atrox snake venom was added to the reaction mixture, and the mixture was incubated at 37°C for 10 min. […]

Another data set has as its target T1, PDE5 (Cavia porcellus, UniProt H0VD23).
T1 construct: partially separated from guinea pig lungs and hearts; from tissue; host or cells: guinea pig lungs and hearts
Description: Inhibition of PDE5 activity (two-step radioenzymatic assay). Format: biochemical, guinea pig. To be noted: mean ± SEM (n); read-out: IC50 on PDE isozyme 5. How it is done: Activities of PDE1–5, partially separated from guinea pig lungs and hearts according to the method described by Ko et al., were measured with a two-step procedure according to the method of Thompson and Appleman, using cAMP with [^3H]-cAMP or cGMP with [^3H]-cGMP as substrates. The enzyme pμreparation (25 μL) was incubated for 30 min at 37°C in a total assay volume of […] containing 50 mM Tris-HCl (pH 7.4), 3 mM MgCl2, 1 mM dithiothreitol, 0.05% BSA, 1 μM cAMP with 0.2 μCi [^3H]-cAMP as a substrate alone or in the presence of 0.1 units calmodulin with 10 μM CaCl2 or 5 μM cGMP, and 1 μM cGMP with 0.2 μCi [^3H]-cGMP as another substrate alone or in the presence of 0.1 units calmodulin with 10 μM CaCl2. […] The reagents and homogenate were mixed on ice, and the reaction was initiated by transferring the mixture to a water bath at 37°C. Following a 30-min incubation, the reaction was stopped by transferring the reaction vessel to a bath of boiling water for 3 min. After cooling on ice, 20 μL of a 1 mg/mL solution of C. atrox snake venom was added to the reaction mixture, and the mixture was incubated at 37°C for 10 min. Unreacted [^3H]-cAMP or [^3H]-cGMP was removed by the addition of 500 μL of a 1-in-1 Tris-HCl (40 mM) buffer suspension of Dowex resin (1 × 8-200) with incubation on ice for 30 min. […]

This is an account of results in paper PMC3094704, “S-Petasin, the Main Sesquiterpene of Petasites formosanus, Inhibits Phosphodiesterase Activity and Suppresses Ovalbumin-Induced Airway Hyperresponsiveness” (Evidence-based Complementary and Alternative Medicine : eCAM, 2011).

Broadly, the IC50 is the concentration that inhibits the measured activity by half.

Where only a bound is given, the exact number is not on record here.

In the case of `C=C(C)[C@@H]1C[C@@]2(C)C(=CC1=O)CC[C@@H](OC(=O)/C=C\SC)[C@@H]2C` [S-Petasin], the solubility in data set [1] is no more than 300 µM. The IC50 in the data set on PDE1 and at PDE5 was greater than 100 µM throughout.
